# Source: patent US20030068615A1, “Polypeptides that bind HIV gp120 and related nucleic acids, antibodies, compositions, and methods of use” (priority 1999, published 2003)
# “And” between values parts separate entries of the source, which are not always exact repeats. Equal values may be shown once. Read-outs that look alike come from different tables or passages of the source.
# Target: HIV-1LAI envelope gp120 (Human immunodeficiency virus type 1 group M subtype B, UniProt P03377)
# Format: binding
# Conditions: for Relative % of Control: mean of two syntheses and binding experiments ± average deviation, wild-type = 100%; for Binding Results For Window Length (counts bound-background), 9 / Binding Results For Window Length (counts bound-background), 12 / Binding Results For Window Length (counts bound-background), 15 / Binding Results For Window Length (counts bound-background), 18: STRL33 amino terminus; for Binding Results For Window Length (counts bound-background), 9: 9-mer starting at the first residue of the printed sequence; for Binding Results For Window Length (counts bound-background), 12: 12-mer starting at the first residue of the printed sequence; for Binding Results For Window Length (counts bound-background), 15: 15-mer starting at the first residue of the printed sequence; for Binding Results For Window Length (counts bound-background), 18: 18-mer starting at the first residue of the printed sequence; for Counts per 20′ Average-background: CCR5 18-mer scan, radiolabeled HIV-1LAI gp120; for number of radioactive decays (counts) counted: human CD4 21-mer scan, empty control 2075
# [1] = Panel F, sequential alanine replacements of CD4 polypeptides, duplicate series, empty control 569
# [2] = Panel C, 15-mers and 18-mers of CD4, empty control 556
# [3] = Panel E, 9-mers and 12-mers of CD4, empty control 571
# [4] = CXCR4 18-mer scan, background subtracted, empty control 0
# [5] = CXCR4 18-mer scan, empty control 412
# [6] = Panel D, 9-mers and 12-mers of CD4, empty control […]
# [7] = Panel B, 15-mers and 18-mers of CD4, empty control 575
# [8] = STRL33 18-mer scan, background subtracted, first of two count columns
# [9] = STRL33 18-mer scan, background subtracted, second of two count columns
sequence,measurement,setting,value
THLLQGQSLTLTLEA,COUNTS of radiolabeled gp120 retained,[1],5849 counts and 7984 counts
KKVEFKIDIVVLAFQ,COUNTS of radiolabeled gp120 retained,[2],951 counts
VEFKIDIVVLAF,COUNTS of radiolabeled gp120 retained,[3],681 counts
EQVEFSFPL,COUNTS of radiolabeled gp120 retained,[3],1032 counts
FLTGIVGNGLVILVMGYQ [CXCR4 segment 49-66],radioactive counts recorded in twenty minutes,[4],246 counts
same,radioactive counts recorded in twenty minutes,[5],658 counts
MDYQVSSPIYDINYYASE,Relative % of Control,CCR5 (1-18) alanine variants,78 ± 34%
LVFGLTANSDTH,COUNTS of radiolabeled gp120 retained,[6],586 counts
EEVALLVFGLTANSD,COUNTS of radiolabeled gp120 retained,[1],10890 counts and 13415 counts
EVEDQKEEVQLLVFG,COUNTS of radiolabeled gp120 retained,[7],2805 counts
YKKEGEQVEFSFPLA,COUNTS of radiolabeled gp120 retained,[2],687 counts
QKEEVQLLVFGLTAN,COUNTS of radiolabeled gp120 retained,[7],3770 counts
MAEHDYHEDYGFSSFNDS [STRL33 segment 1-18],radioactive counts recorded in twenty minutes,[8],1178.5 counts
same,radioactive counts recorded in twenty minutes,[9],1320.5 counts
same,"Binding Results For Window Length (counts bound-background), 9",background subtracted,160 counts
same,"Binding Results For Window Length (counts bound-background), 12",background subtracted,625 counts
same,"Binding Results For Window Length (counts bound-background), 15",background subtracted,1239 counts
same,"Binding Results For Window Length (counts bound-background), 18",background subtracted,1386 counts
VYKKEGEQVEFS,COUNTS of radiolabeled gp120 retained,[3],584 counts
KIDIVVLAFQKASSIVYK,COUNTS of radiolabeled gp120 retained,[2],779 counts
ACLNPVLYAFVSLKFRKN [STRL33 segment 281-298],radioactive counts recorded in twenty minutes,[8],4173.5 counts
same,radioactive counts recorded in twenty minutes,[9],4515.5 counts
FIFGFVGNMLVILILINC [CCR5 segment 41-58],Counts per 20′ Average-background,background subtracted,343 counts per 20′
FLVNLPLADLVFVCTLPF [STRL33 segment 69-86],radioactive counts recorded in twenty minutes,[8],70.5 counts
same,radioactive counts recorded in twenty minutes,[9],51.5 counts
KAVWVLNPEAGMWQCLLSDSG [human CD4 356-376],number of radioactive decays (counts) counted,,3133 counts
NFPLIIKNLKIEDSD,COUNTS of radiolabeled gp120 retained,[7],654 counts
MDYQVSSPAYDINYYTSE [CCR5 (1-18) variant printed 19A],Relative % of Control,CCR5 (1-18) alanine variants,24 ± 7%
GLHYTCSSEFPYSQYQFW,Counts per 20′ Average-background,background subtracted,301 counts per 20′
KNLKIEDSDTYICEVEDQ,COUNTS of radiolabeled gp120 retained,[7],708 counts
GVSNQWKSSEDNSKTFSA [STRL33 segment 313-330],radioactive counts recorded in twenty minutes,[8],208.5 counts
same,radioactive counts recorded in twenty minutes,[9],306.5 counts
RNYLLVFFQKHIAKRFCK,Counts per 20′ Average-background,background subtracted,65 counts per 20′
EKLTGSGELWWQAER,COUNTS of radiolabeled gp120 retained,[2],683 counts
MEGISIYTADNYTEEMGS,Relative % of Control,CXCR4 (1-18) alanine variants,70 ± 4%
FTVEKLTGSGELWWQ,COUNTS of radiolabeled gp120 retained,[2],625 counts
TCSSHFPYSQYQFWKNFQ [CCR5 segment 177-],Counts per 20′ Average-background,background subtracted,367 counts per 20′
EEVQLLVFGLTANAD,COUNTS of radiolabeled gp120 retained,[1],17928 counts and 17684 counts
EKVVYVGVWIPALLLTIP [CXCR4 segment 153-170],radioactive counts recorded in twenty minutes,[4],147 counts
same,radioactive counts recorded in twenty minutes,[5],559 counts
SRGSSLKILSKGKRGGHS [CXCR4 segment 321-338],radioactive counts recorded in twenty minutes,[4],169 counts
same,radioactive counts recorded in twenty minutes,[5],581 counts
SSIVYKKEGEQVEFS,COUNTS of radiolabeled gp120 retained,[2],558 counts
IFYHKLQSLTDVFLVNLP [STRL33 segment 57-74],radioactive counts recorded in twenty minutes,[8],1275.5 counts
same,radioactive counts recorded in twenty minutes,[9],1256.5 counts
ATNSQRPRKLLAEKVVYV,radioactive counts recorded in twenty minutes,[4],78 counts
same,radioactive counts recorded in twenty minutes,[5],490 counts
VVLAFQKASSIVYKK,COUNTS of radiolabeled gp120 retained,[2],577 counts
IKNLKIEDSDTYICE,COUNTS of radiolabeled gp120 retained,[7],568 counts
EFKIDIVVLAFQKASSIVYKK,COUNTS of radiolabeled gp120 retained,"Panel A, 21-mers of CD4, empty control 515 and 617",649 counts
TYICEVEDQKEEVQLLVF,COUNTS of radiolabeled gp120 retained,[7],3794 counts
SFWDSSQEEEQAFLQFSK,"Binding Results For Window Length (counts bound-background), 9",background subtracted,304 counts
same,"Binding Results For Window Length (counts bound-background), 12",background subtracted,303 counts
same,"Binding Results For Window Length (counts bound-background), 15",background subtracted,969 counts
same,"Binding Results For Window Length (counts bound-background), 18",background subtracted,4537 counts
RMSQIKRLLSEKKTCQCPHRF,number of radioactive decays (counts) counted,,2020 counts
IVYKKEGEQ,COUNTS of radiolabeled gp120 retained,[3],534 counts
KEEVQLLVFGLTANS,COUNTS of radiolabeled gp120 retained,[7],3485 counts
YQKKLRSMTDKYRLHLSV [CXCR4 segment 65-82],radioactive counts recorded in twenty minutes,[4],99 counts
same,radioactive counts recorded in twenty minutes,[5],511 counts
FKIDIVVLA,COUNTS of radiolabeled gp120 retained,[3],568 counts
LLIWVISLLVSLPQIIYG [STRL33 segment 153-170],radioactive counts recorded in twenty minutes,[8],42.5 counts
same,radioactive counts recorded in twenty minutes,[9],75.5 counts
SSIVYKKEGEQVEFSFPL,COUNTS of radiolabeled gp120 retained,[2],756 counts
LIIKNLKIEDSDTYI,COUNTS of radiolabeled gp120 retained,[7],542 counts
THLLQGQSL,COUNTS of radiolabeled gp120 retained,[6],512 counts
TVEKLTGSGELWWQA,COUNTS of radiolabeled gp120 retained,[2],550 counts
QLLVFGLTANSD,COUNTS of radiolabeled gp120 retained,[6],721 counts
VQLLVFGLTANSDTH,COUNTS of radiolabeled gp120 retained,[7],1006 counts
MVGLILPGIVILSCYCII [CXCR4 segment 205-222],radioactive counts recorded in twenty minutes,[4],167 counts
same,radioactive counts recorded in twenty minutes,[5],579 counts
VLAFQKASSIVYKKE,COUNTS of radiolabeled gp120 retained,[2],634 counts
FACWLPYYIGISIDSFIL [CXCR4 segment 249-266],radioactive counts recorded in twenty minutes,[4],202 counts
same,radioactive counts recorded in twenty minutes,[5],614 counts
QNQKKVEFK,COUNTS of radiolabeled gp120 retained,[3],537 counts
LLVFGLTANSDTHLL,COUNTS of radiolabeled gp120 retained,[7],599 counts
AIVHATNSQRPRKLLAEK [CXCR4 segment 137-154],radioactive counts recorded in twenty minutes,[4],73 counts
same,radioactive counts recorded in twenty minutes,[5],485 counts
ILLEIIKQGCEFENTVHK [CXCR4 segment 265-282],radioactive counts recorded in twenty minutes,[4],117 counts
same,radioactive counts recorded in twenty minutes,[5],529 counts
AFQKASSIVYKKEGEQVE,COUNTS of radiolabeled gp120 retained,[2],514 counts
ADYQVSSPIYDINYYTSE [CCR5 (1-18) variant M1A],Relative % of Control,CCR5 (1-18) alanine variants,167 ± 4%
NLTLALEAKTGKLHQEVNLVV [human CD4 296-316],number of radioactive decays (counts) counted,,1676 counts
IVVLAFQKASSIVYK,COUNTS of radiolabeled gp120 retained,[2],783 counts
QNQKKVEFKIDIVVL,COUNTS of radiolabeled gp120 retained,[2],636 counts
AEHDYHEDYGFSSFNDSS,"Binding Results For Window Length (counts bound-background), 9",background subtracted,354 counts
same,"Binding Results For Window Length (counts bound-background), 12",background subtracted,697 counts
same,"Binding Results For Window Length (counts bound-background), 15",background subtracted,1095 counts
same,"Binding Results For Window Length (counts bound-background), 18",background subtracted,1014 counts
YAMTSFHYTIMVTEAIAY [STRL33 segment 261-278],radioactive counts recorded in twenty minutes,[8],2688.5 counts
same,radioactive counts recorded in twenty minutes,[9],2359.5 counts
EDSDTYICE,COUNTS of radiolabeled gp120 retained,[6],650 counts
IEDSDTYICEVEDQKEEV,COUNTS of radiolabeled gp120 retained,[7],1230 counts
DDRYICDRFYPNDLWVVV,radioactive counts recorded in twenty minutes,[4],125 counts
same,radioactive counts recorded in twenty minutes,[5],537 counts
TVTFGVVTSVITWVVAVF,Counts per 20′ Average-background,background subtracted,−25 counts per 20′
IDIVVLAFQ,COUNTS of radiolabeled gp120 retained,[3],691 counts
EFSFPLAFTVEKLTGSGE,COUNTS of radiolabeled gp120 retained,[2],668 counts
QKHIAKRFCKCCSIFQQE [CCR5 segment 313-],Counts per 20′ Average-background,background subtracted,23 counts per 20′
QEEHQAFLQFSK,"Binding Results For Window Length (counts bound-background), 9",background subtracted,1109 counts
same,"Binding Results For Window Length (counts bound-background), 12",background subtracted,5672 counts
IIKNLKIED,COUNTS of radiolabeled gp120 retained,[6],658 counts
FSFPLAFTVEKLTGSGEL,COUNTS of radiolabeled gp120 retained,[2],613 counts
ALAFFHCCLNPILYAFLG [CXCR4 segment 289-306],radioactive counts recorded in twenty minutes,[4],181 counts
same,radioactive counts recorded in twenty minutes,[5],593 counts
SITEALAFFHCCLNPILY [CXCR4 segment 285-302],radioactive counts recorded in twenty minutes,[4],188 counts
same,radioactive counts recorded in twenty minutes,[5],600 counts
YTINFYTSMLILTCITVD,radioactive counts recorded in twenty minutes,[8],351.5 counts
same,radioactive counts recorded in twenty minutes,[9],510.5 counts
ANSDTHLLQGQSLTLTLE,COUNTS of radiolabeled gp120 retained,[7],1540 counts
VQLLVFGLTANS,COUNTS of radiolabeled gp120 retained,[6],747 counts
LWDQGNFPLIIKNLKIED,COUNTS of radiolabeled gp120 retained,[7],582 counts
IEDSDTYICEVEDQK,COUNTS of radiolabeled gp120 retained,[7],1143 counts
VEKLTGSGELWWQAE,COUNTS of radiolabeled gp120 retained,[2],735 counts
LLFVITLPFWAVDAVANW,radioactive counts recorded in twenty minutes,[4],63 counts
same,radioactive counts recorded in twenty minutes,[5],475 counts
EQVEFSFPLAFT,COUNTS of radiolabeled gp120 retained,[3],1556 counts
VEFKIDIVVLAFQKASSI,COUNTS of radiolabeled gp120 retained,[2],819 counts
SVITWVVAVFASLPGIIF,Counts per 20′ Average-background,background subtracted,46 counts per 20′
MDYQVSSPIYDIAYYTSE,Relative % of Control,CCR5 (1-18) alanine variants,253 ± 19%
QKASSIVYKKEG,COUNTS of radiolabeled gp120 retained,[3],596 counts
GMWQCLLSDSGQVLLESNIKV,number of radioactive decays (counts) counted,,4185 counts
KLLAEKVVYVGVWIPALL,radioactive counts recorded in twenty minutes,[4],89 counts
same,radioactive counts recorded in twenty minutes,[5],501 counts
AFTVEKLTGSGELWW,COUNTS of radiolabeled gp120 retained,[2],586 counts
EDSDTYICEVED,COUNTS of radiolabeled gp120 retained,[6],956 counts
